Consider four molecules from patent US20240189331A1, “NOVEL […] FILM FORMULATION” (INTELGENX CORP., priority 2021, published 2024).

“Also recorded” adds a separate entry of the source.

The nature of series [1]: In vitro permeability study in 6 station Franz diffusion cell apparatus using porcine buccal mucosa. The conditions noted are these: for effect of acidifying agent in film formulation on permeation of psilocybin through pig mucosa membrane: psilocybin around its isoelectric point (pH=3.9).
For series [2] the following is noted: cited from earlier work.
For series [3] the following is noted: administered orally; cited from earlier work.

Turning to `O=P(O)(O)O` [phosphoric acid], the “effect of acidifying agent in film formulation on permeation of psilocybin through pig mucosa membrane” value in series [1] was “triggers permeation”.
Regarding `CN(C)CCc1c[nH]c2cccc(OP(=O)(O)O)c12` [psilocybin, [3-(2-Dimethylaminoethyl)-1H-indol-4-yl]dihydrogen phosphate], in series [2] (first phosphate oxygen), the pka1 is listed as 1.3. In addition, the pka2 in series [2] (second phosphate oxygen) is reported as 6.5. The pka3 in series [2] (tertiary amine group) is recorded as 10.4. Also, in series [3], the “drug absorbed into the bloodstream” value is reported as “about 50%” and the “time of maximum plasma concentration” value is reported as “approximately 80 minutes”.
`O=C(O)CC(O)(CC(=O)O)C(=O)O` [citric acid]: the “effect of acidifying agent in film formulation on permeation of psilocybin through pig mucosa membrane” value in series [1] is “triggers permeation”.
“Benzalkonium chloride [Benzalkonium chloride (BKC)]”: the “effect of penetration enhancer on psilocybin diffusion through porcine buccal mucosa” value in series [1] (penetration enhancer in psilocybin film formulation, FIG. 4 and FIG. 5) is “improved buccal permeation; also recorded: significate increase”.
